Targets include D(1A) dopamine receptor (Homo sapiens, UniProt P21728); Vasopressin V2 receptor (Homo sapiens, UniProt P30518); Mu-type opioid receptor (Homo sapiens, UniProt P35372).
In the next assay the target is T1, B2 bradykinin receptor (Homo sapiens, UniProt P30411).
T1 sequence (P30411 whole entry): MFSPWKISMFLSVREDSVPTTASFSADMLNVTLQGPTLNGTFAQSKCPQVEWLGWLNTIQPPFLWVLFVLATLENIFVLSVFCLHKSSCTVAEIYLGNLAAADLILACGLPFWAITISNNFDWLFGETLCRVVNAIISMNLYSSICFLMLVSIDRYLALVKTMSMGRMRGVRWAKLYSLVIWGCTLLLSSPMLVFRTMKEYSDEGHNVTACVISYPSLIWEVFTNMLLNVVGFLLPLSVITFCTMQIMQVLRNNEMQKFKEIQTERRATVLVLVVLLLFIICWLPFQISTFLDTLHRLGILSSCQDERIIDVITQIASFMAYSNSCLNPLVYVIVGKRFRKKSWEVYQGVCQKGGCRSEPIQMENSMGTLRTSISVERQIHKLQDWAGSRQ

Assay [1] concerns the target T2, Sodium-dependent serotonin transporter (Homo sapiens, UniProt P31645).
The target of assay [2] is T3, Alpha-1A adrenergic receptor (Homo sapiens, UniProt P35348).
T3 sequence (P35348 whole entry): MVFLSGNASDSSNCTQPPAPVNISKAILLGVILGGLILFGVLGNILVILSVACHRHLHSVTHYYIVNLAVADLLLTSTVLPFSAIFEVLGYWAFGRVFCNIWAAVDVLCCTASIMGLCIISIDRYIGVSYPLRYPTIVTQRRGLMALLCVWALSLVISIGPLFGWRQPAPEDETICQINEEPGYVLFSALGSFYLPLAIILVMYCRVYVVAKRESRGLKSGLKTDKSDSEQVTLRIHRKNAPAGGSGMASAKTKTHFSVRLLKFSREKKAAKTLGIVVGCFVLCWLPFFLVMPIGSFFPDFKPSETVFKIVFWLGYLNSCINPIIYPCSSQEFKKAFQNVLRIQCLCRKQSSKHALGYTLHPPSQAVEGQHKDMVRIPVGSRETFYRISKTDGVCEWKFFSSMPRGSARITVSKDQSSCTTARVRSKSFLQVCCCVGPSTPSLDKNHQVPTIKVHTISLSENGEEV
Type of assay: functional, cell-based.

In assay [3] the target is T2, Sodium-dependent serotonin transporter. The source holds these as a separate data set.
For the next assay, the target named is T4, Estrogen receptor (Homo sapiens, UniProt P03372).
T4 sequence (P03372 whole entry): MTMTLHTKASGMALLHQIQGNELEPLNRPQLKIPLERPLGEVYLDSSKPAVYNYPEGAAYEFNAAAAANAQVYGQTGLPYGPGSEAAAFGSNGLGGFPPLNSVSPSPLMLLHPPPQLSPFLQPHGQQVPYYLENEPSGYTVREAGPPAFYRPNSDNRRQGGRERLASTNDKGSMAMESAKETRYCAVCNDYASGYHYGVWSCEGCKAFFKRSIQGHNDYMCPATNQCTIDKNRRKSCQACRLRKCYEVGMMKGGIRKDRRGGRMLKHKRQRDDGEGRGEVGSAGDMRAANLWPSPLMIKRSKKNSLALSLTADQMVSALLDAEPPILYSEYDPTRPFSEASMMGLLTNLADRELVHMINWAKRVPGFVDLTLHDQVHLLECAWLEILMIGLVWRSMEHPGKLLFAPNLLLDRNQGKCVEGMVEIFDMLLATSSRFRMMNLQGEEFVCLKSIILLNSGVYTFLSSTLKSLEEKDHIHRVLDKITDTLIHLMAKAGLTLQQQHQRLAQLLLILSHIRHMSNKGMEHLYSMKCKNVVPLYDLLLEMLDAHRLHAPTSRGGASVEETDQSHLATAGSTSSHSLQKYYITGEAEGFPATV

The target in the next assay is T5, Glucocorticoid receptor (Homo sapiens, UniProt P04150).
T5 sequence (P04150 whole entry): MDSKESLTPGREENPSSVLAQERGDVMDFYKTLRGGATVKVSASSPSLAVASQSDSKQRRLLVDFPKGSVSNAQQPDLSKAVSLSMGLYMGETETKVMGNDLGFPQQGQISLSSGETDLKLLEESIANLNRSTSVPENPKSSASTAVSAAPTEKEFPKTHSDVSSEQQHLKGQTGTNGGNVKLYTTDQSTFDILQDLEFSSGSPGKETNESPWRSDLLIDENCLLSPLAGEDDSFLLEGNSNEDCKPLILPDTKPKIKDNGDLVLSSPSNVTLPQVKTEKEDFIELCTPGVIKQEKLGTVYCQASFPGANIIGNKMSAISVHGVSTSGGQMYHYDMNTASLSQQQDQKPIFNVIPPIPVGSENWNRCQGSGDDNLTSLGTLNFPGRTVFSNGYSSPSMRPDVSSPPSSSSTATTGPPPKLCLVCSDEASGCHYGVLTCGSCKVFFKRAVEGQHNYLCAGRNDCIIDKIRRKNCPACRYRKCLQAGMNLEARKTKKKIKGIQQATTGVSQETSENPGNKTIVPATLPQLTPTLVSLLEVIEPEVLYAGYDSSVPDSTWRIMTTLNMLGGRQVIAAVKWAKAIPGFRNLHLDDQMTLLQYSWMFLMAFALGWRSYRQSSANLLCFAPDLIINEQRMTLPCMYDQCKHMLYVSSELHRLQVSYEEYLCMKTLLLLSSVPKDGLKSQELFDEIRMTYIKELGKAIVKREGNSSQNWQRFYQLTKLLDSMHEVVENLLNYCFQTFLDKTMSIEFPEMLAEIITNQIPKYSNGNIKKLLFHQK

The target of assay [4] is Beta-2 adrenergic receptor (Homo sapiens, UniProt P07550).
Sequence of Beta-2 adrenergic receptor (P07550 whole entry): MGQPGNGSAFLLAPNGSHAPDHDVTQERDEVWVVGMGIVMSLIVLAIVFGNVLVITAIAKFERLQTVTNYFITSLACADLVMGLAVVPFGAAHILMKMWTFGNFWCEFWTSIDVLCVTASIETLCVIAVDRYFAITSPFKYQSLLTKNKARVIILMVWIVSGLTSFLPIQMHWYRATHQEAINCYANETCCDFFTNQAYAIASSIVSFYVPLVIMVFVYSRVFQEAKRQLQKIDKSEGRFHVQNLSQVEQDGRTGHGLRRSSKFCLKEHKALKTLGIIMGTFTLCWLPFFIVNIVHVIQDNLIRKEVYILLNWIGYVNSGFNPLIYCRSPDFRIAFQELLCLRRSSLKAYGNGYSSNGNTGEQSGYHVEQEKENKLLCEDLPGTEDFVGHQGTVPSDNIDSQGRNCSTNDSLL

Each structure is given as a SMILES string.
Further: assay procedure not described here.

T2 sequence (P31645 whole entry): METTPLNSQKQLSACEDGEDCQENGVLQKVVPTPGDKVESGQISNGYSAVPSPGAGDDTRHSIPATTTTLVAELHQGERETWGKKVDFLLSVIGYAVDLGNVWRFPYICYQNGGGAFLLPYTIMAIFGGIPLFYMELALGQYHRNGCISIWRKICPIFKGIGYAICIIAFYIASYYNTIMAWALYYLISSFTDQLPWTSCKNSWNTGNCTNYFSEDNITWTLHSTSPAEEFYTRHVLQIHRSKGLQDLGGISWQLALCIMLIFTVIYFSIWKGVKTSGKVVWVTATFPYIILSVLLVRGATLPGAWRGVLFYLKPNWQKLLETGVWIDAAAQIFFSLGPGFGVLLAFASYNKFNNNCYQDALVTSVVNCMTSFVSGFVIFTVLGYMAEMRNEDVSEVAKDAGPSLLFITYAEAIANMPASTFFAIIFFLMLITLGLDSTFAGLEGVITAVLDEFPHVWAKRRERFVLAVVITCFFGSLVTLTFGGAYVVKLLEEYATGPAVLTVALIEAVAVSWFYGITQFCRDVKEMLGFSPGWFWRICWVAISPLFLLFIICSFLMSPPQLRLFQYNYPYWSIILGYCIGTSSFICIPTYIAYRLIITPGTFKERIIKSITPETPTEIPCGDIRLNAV
Sequence of Vasopressin V2 receptor (P30518 whole entry): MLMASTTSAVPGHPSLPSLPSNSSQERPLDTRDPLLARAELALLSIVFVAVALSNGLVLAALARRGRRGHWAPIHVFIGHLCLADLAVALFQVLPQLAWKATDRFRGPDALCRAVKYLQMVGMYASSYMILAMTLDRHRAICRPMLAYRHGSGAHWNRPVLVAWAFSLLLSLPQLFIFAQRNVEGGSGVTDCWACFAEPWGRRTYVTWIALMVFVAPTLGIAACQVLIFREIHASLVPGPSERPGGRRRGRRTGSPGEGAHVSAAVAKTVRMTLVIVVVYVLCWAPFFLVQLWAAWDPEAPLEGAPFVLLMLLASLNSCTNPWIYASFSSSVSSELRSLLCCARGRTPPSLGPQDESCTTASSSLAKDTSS
Sequence of Mu-type opioid receptor (P35372 whole entry): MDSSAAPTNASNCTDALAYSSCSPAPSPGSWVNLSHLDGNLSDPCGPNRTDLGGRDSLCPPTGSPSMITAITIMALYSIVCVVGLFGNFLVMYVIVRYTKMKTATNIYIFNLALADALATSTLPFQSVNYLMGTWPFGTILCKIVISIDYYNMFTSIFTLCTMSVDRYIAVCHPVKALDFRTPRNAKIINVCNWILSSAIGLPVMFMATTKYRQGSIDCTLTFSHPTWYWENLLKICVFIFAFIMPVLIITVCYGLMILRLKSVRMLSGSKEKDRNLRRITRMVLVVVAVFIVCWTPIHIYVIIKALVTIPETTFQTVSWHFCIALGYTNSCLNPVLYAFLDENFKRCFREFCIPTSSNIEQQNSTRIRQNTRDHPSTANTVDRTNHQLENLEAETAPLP
Sequence of D(1A) dopamine receptor (P21728 whole entry): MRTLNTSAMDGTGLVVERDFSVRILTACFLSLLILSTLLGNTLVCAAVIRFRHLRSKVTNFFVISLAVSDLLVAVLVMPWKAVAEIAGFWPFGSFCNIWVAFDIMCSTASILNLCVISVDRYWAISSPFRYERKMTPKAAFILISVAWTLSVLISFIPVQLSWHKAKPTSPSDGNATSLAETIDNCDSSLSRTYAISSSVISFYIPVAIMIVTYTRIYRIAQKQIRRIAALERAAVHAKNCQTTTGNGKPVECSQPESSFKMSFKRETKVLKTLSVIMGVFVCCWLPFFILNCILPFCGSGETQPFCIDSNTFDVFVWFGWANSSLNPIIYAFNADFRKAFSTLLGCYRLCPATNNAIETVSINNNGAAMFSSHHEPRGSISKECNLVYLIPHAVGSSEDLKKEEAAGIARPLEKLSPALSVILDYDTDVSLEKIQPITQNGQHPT

In general, AC50 refers to the concentration giving half of the maximal activity seen. A higher AC50 goes with activity only at high concentration. Turning to `C=CCc1ccccc1OCC(O)CNC(C)C` (stereo not given) [ALPRENOLOL], the AC50 at D(1A) dopamine receptor is > 0.3 µM; at B2 bradykinin receptor, 14 µM; in [1], 11.5 µM; on Vasopressin V2 receptor, > 30 µM; in assay [2] it was 7.53 µM; in assay [3], > 0.3 µM.

`COC(c1ccccc1)(c1ccccc1)[C@H](Oc1nc(C)cc(C)n1)C(=O)O` [AMBRISENTAN]: the AC50 (at D(1A) dopamine receptor; in [3]) was > 30 µM in each case.

`CC[C@H]1OC(=O)[C@H](C)[C@@H](O[C@H]2C[C@@](C)(OC)[C@@H](O)[C@H](C)O2)[C@H](C)[C@@H](O[C@@H]2O[C@H](C)C[C@H](N(C)C)[C@H]2O)[C@](C)(O)C[C@@H](C)CN(C)[C@H](C)[C@@H](O)[C@]1(C)O` [AZITHROMYCIN]: the half-maximal activity concentration (AC50) at D(1A) dopamine receptor is > 30 µM; at B2 bradykinin receptor, > 30 µM; on Vasopressin V2 receptor, > 30 µM; at Estrogen receptor it was > 30 µM; at Mu-type opioid receptor, > 10 µM; in assay [2], > 30 µM.

On to `CCc1oc2ccccc2c1C(=O)c1cc(I)c(O)c(I)c1` [BENZIODARONE], for which the figures for the AC50 (on D(1A) dopamine receptor; on Estrogen receptor; in [3]) were 10 µM, > 30 µM and > 30 µM, respectively.

Take `CN(C)CCn1nnnc1SCC1=C(C(=O)O)N2C(=O)[C@@H](NC(=O)Cc3csc(N)n3)[C@H]2SC1` [CEFOTIAM]: the AC50 (on D(1A) dopamine receptor; in assay [3]) was > 30 µM each time.

For `COCc1c(C(C)C)nc(C(C)C)c(/C=C/[C@@H](O)C[C@@H](O)CC(=O)O)c1-c1ccc(F)cc1` [CERIVASTATIN], the half-maximal activity concentration (AC50) is > 30 µM at D(1A) dopamine receptor and 23.3 µM at Estrogen receptor.

Turning to `CN1C(=O)CCS(=O)(=O)C1c1ccc(Cl)cc1` (stereo not given) [CHLORMEZANONE], the AC50 was > 10 µM on B2 bradykinin receptor; > 10 µM in assay [1]; > 10 µM on Vasopressin V2 receptor; > 10 µM on Glucocorticoid receptor; > 10 µM in [4]; > 30 µM on Mu-type opioid receptor.

For `Oc1c(Cl)cc(Cl)c2cccnc12` [CHLOROXINE], the AC50 (at D(1A) dopamine receptor; at Estrogen receptor; in [3]) was > 30 µM throughout.

On to `C[N+](C)(C)CCO` [CHOLINE], for which the AC50 at D(1A) dopamine receptor and at Estrogen receptor was > 30 µM throughout.

For `CN(C)[C@@H](c1cccc(O)c1)[C@H]1CCCC[C@H]1O` [CIRAMADOL], the AC50 at D(1A) dopamine receptor is > 30 µM; on Estrogen receptor, > 30 µM; in assay [3], 27.5 µM.

Take `CN(C)CC(c1ccc(O)cc1)C1(O)CCCCC1` (stereo not given) [DESVENLAFAXINE]: the concentration at half-maximal activity (AC50) at D(1A) dopamine receptor and on Estrogen receptor was > 30 µM throughout.

With `CN(C)CCN1C(=O)c2ccccc2N(C)c2ccccc21` [DIBENZEPIN], the AC50 at D(1A) dopamine receptor is 14.3 µM; at Estrogen receptor it was > 30 µM; in assay [3] it was 1.32 µM.

As to `N[C@H](C(=O)O)[C@H](O)c1ccc(O)c(O)c1` [DROXIDOPA], the AC50 (at D(1A) dopamine receptor; on Estrogen receptor; in assay [3]) was > 30 µM each time.

`Cc1cc(C#N)cc(C)c1Oc1nc(Nc2ccc(C#N)cc2)nc(N)c1Br` [ETRAVIRINE]: the AC50 at D(1A) dopamine receptor was 4.53 µM; at Estrogen receptor, 6.28 µM; in [3] it was > 30 µM.

In the case of `O=C(O)c1cc(O)ccc1O` [GENTISIC ACID], the AC50 (on D(1A) dopamine receptor; at Estrogen receptor; in assay [3]) was > 30 µM throughout.

With `CCC1=C(C)CN(C(=O)NCCc2ccc(S(=O)(=O)NC(=O)N[C@H]3CC[C@H](C)CC3)cc2)C1=O` [GLIMEPIRIDE], the concentration at half-maximal activity (AC50) on D(1A) dopamine receptor and on Estrogen receptor was > 30 µM throughout.

As for `C[N+]1(C)CCC(OC(=O)C(O)(c2ccccc2)C2CCCC2)C1` (stereo not given) [GLYCOPYRRONIUM BROMIDE], the half-maximal activity concentration (AC50) on B2 bradykinin receptor, on Vasopressin V2 receptor, at Glucocorticoid receptor and at Estrogen receptor was > 30 µM in each case.

As for `CC(C)Nc1ncccn1` [ISAXONINE], the AC50 (at D(1A) dopamine receptor; on Estrogen receptor; in [3]) was > 30 µM in each case.

In the case of `CN1C(C(=O)Nc2ccccn2)=C(O)c2sc(Cl)cc2S1(=O)=O` [LORNOXICAM], the AC50 (at B2 bradykinin receptor; in assay [1]; at Vasopressin V2 receptor; in assay [4]; at Mu-type opioid receptor; in assay [2]) was > 30 µM each time.

On to `CC1(C)NC(=O)N(c2ccc([N+](=O)[O-])c(C(F)(F)F)c2)C1=O` [NILUTAMIDE], for which the AC50 (at D(1A) dopamine receptor; on B2 bradykinin receptor; in [1]; on Vasopressin V2 receptor; in assay [4]; in [3]) was > 30 µM each time.

Turning to `COc1ccc(CC(C)(C)NC[C@H](O)c2cc(O)cc3c2OCC(=O)N3)cc1` [OLODATEROL], the results for the concentration at half-maximal activity (AC50) (in assay [1]; at Mu-type opioid receptor; in assay [2]) were 0.0608 µM, > 30 µM and 0.055 µM, respectively.

As for `COc1cc(NC(C)CCCN)c2ncccc2c1` (stereo not given) [PRIMAQUINE], the concentration at half-maximal activity (AC50) at B2 bradykinin receptor, at Vasopressin V2 receptor and at Estrogen receptor was > 30 µM in each case.

With `C=C[C@H]1C[N@@]2CC[C@H]1C[C@H]2[C@H](O)c1ccnc2ccc(OC)cc12` [QUININE], the AC50 at D(1A) dopamine receptor and on Estrogen receptor was > 30 µM each time.

For the molecule `CCOC(=O)[C@H](CCc1ccccc1)N[C@@H](C)C(=O)N1[C@H](C(=O)O)C[C@H]2CCCC[C@@H]21` [TRANDOLAPRIL], the AC50 (at D(1A) dopamine receptor; in assay [3]) was > 30 µM each time.

With `Nc1ccn([C@H]2CC[C@@H](CO)O2)c(=O)n1` [ZALCITABINE], the AC50 at B2 bradykinin receptor was > 10 µM; in assay [1], > 10 µM; at Vasopressin V2 receptor, > 10 µM; in assay [4], > 10 µM; at Mu-type opioid receptor, > 30 µM; in [2], > 30 µM.

Take `Cc1cn([C@H]2C[C@H](N=[N+]=[N-])[C@@H](CO)O2)c(=O)[nH]c1=O` [ZIDOVUDINE]: the AC50 was > 30 µM at D(1A) dopamine receptor; > 30 µM on B2 bradykinin receptor; > 30 µM at Vasopressin V2 receptor; > 30 µM on Glucocorticoid receptor; > 10 µM in assay [4]; > 30 µM at Estrogen receptor. Also, the AC50 (on Mu-type opioid receptor; in assay [2]) was > 30 µM each time.

As to `NS(=O)(=O)Cc1noc2ccccc12` [ZONISAMIDE], the concentration at half-maximal activity (AC50) at B2 bradykinin receptor is > 10 µM; in [1] it was > 10 µM; at Vasopressin V2 receptor, > 10 µM; at Glucocorticoid receptor, > 10 µM; in [4], > 10 µM; on Mu-type opioid receptor it was > 30 µM.

The values above are taken from ChEMBL document CHEMBL5291721, “A preclinical secondary pharmacology resource illuminates target-adverse drug reaction associations of marketed drugs” (Nat Commun, 2023).
